The values below are quoted from earlier work in publication PMC7060171, “Evaluation of Radiation dosimetry of ^99mTc-HYNIC-PSMA and imaging in prostate cancer” (Scientific Reports, 2020).

SMILES strings stand for the structures.

Details in the first data set: not given
Regarding `O=C(O)CC[C@H](NC(=O)N[C@@H](CCCCNC(=O)c1ccc([18F])nc1)C(=O)O)C(=O)O` [^18F-DCFPyL], the Effective dose is 1.39E-02 mSv/MBq.

As to `O=C(O)CC[C@H](NC(=O)N[C@@H](CCCCNC(=O)[C@H](Cc1ccc2ccccc2c1)NC(=O)c1ccc(CNC(=O)[C@H](CCC(=O)O)NC(=O)[C@H](CCC(=O)O)NC(=O)c2ccc([18F])nc2)cc1)C(=O)O)C(=O)O` [^18F-PSMA-1007], the Effective dose is given as 2.2E-02 mSv/MBq.

As to `O=C([O-])CN(CCN(CC(=O)[O-])Cc1cc(CCC(=O)NCCCCCC(=O)NCCCC[C@H](NC(=O)N[C@@H](CCC(=O)O)C(=O)O)C(=O)O)ccc1[O-])Cc1cc(CCC(=O)O)ccc1[O-].[68Ga+3].[OH3+]` [^68Ga-PSMA-11], the Effective dose was 2.36E-02 mSv/MBq.

In the case of `O=C(O)CC[C@H](NC(=O)N[C@@H](CCC(=O)N[C@@H](CCCCN(Cc1nccn1CC(=O)N(CC(=O)O)CC(=O)O)Cc1nccn1CC(=O)N(CC(=O)O)CC(=O)O)C(=O)O)C(=O)O)C(=O)O.[99Tc+4].[CH-]=O.[CH-]=O.[CH-]=O.[Cl-]` [^99mTc-MIP-1404], the Effective dose is 8.8E-03 mSv/MBq.

The same data set, now with this note: conventional 99mTc-labelled radiopharmaceuticals used in SPECT/CT scans.
Regarding `O=P(O)(O)CP(=O)(O)O` (99mTc complex, metal not drawn) [MDP], the Effective dose is reported as 5.68E-03 mSv/MBq.

On to `[C-]#[N+]CC(C)(C)OC.[C-]#[N+]CC(C)(C)OC.[C-]#[N+]CC(C)(C)OC.[C-]#[N+]CC(C)(C)OC.[C-]#[N+]CC(C)(C)OC.[C-]#[N+]CC(C)(C)OC.[Tc]` [MIBI], for which the Effective dose was 7.83E-03 mSv/MBq.
